Laboratory results reported in the NIST ThermoML archive (doi:10.1021/acs.jced.8b00399).
± gives the expanded uncertainty stated by the source.

Experiment: mn = molality of the nth substance listed, in mol/kg
Conditions: 99.6 kPa, Liquid; for viscosity: Capillary tube (Ostwald / Ubbelohde) method; for mass density: Vibrating tube method

CNC(C)=O [N-methylacetamide] + [Cl-].[Cl-].[Zn+2]
Conditions	mass density, 308.15 K [kg/m3]	mass density, 313.15 K [kg/m3]	mass density, 318.15 K [kg/m3]	mass density, 323.15 K [kg/m3]	mass density, 328.15 K [kg/m3]	viscosity, 308.15 K [mPa·s]	viscosity, 313.15 K [mPa·s]	viscosity, 318.15 K [mPa·s]	viscosity, 323.15 K [mPa·s]	viscosity, 328.15 K [mPa·s]
m2 = 0	946.01 ± 1.9	941.81 ± 1.9	937.59 ± 1.9	933.36 ± 1.9	929.17 ± 1.9	3.57 ± 0.044	3.152 ± 0.039	2.8 ± 0.035	2.496 ± 0.031	2.245 ± 0.028
m2 = 0.01212	947.01 ± 1.9	942.99 ± 1.9	938.78 ± 1.9	934.4 ± 1.9	930.23 ± 1.9	3.595 ± 0.044	3.169 ± 0.039	2.819 ± 0.035	2.512 ± 0.031	2.26 ± 0.028
m2 = 0.02085	948.03 ± 1.9	943.83 ± 1.9	939.63 ± 1.9	935.24 ± 1.9	931.05 ± 1.9	3.615 ± 0.044	3.186 ± 0.039	2.834 ± 0.035	2.528 ± 0.031	2.271 ± 0.028
m2 = 0.04092	949.55 ± 1.9	945.27 ± 1.9	941.06 ± 1.9	936.82 ± 1.9	932.75 ± 1.9	3.653 ± 0.045	3.223 ± 0.04	2.868 ± 0.035	2.558 ± 0.032	2.296 ± 0.028
m2 = 0.04735	950.23 ± 1.9	946.04 ± 1.9	941.77 ± 1.9	937.56 ± 1.9	933.2 ± 1.9	3.669 ± 0.045	3.232 ± 0.04	2.876 ± 0.035	2.566 ± 0.032	2.304 ± 0.028
m2 = 0.05898	951.13 ± 1.9	946.91 ± 1.9	942.72 ± 1.9	938.63 ± 1.9	934.26 ± 1.9	3.698 ± 0.045	3.255 ± 0.04	2.895 ± 0.036	2.584 ± 0.032	2.319 ± 0.029
m2 = 0.06108	951.43 ± 1.9	947.18 ± 1.9	942.96 ± 1.9	938.78 ± 1.9	934.52 ± 1.9	3.703 ± 0.045	3.262 ± 0.04	2.9 ± 0.036	2.586 ± 0.032	2.322 ± 0.029
m2 = 0.07786	952.85 ± 1.9	948.65 ± 1.9	944.45 ± 1.9	940.25 ± 1.9	935.97 ± 1.9	3.743 ± 0.046	3.293 ± 0.04	2.928 ± 0.036	2.612 ± 0.032	2.344 ± 0.029
m2 = 0.09351	954.27 ± 1.9	949.99 ± 1.9	945.73 ± 1.9	941.52 ± 1.9	937.33 ± 1.9	3.778 ± 0.046	3.324 ± 0.041	2.955 ± 0.036	2.635 ± 0.032	2.364 ± 0.029
m2 = 0.1025	955.14 ± 1.9	950.92 ± 1.9	946.63 ± 1.9	942.41 ± 1.9	938.12 ± 1.9	3.797 ± 0.047	3.347 ± 0.041	2.972 ± 0.037	2.652 ± 0.033	2.378 ± 0.029
m2 = 0.1083	955.59 ± 1.9	951.41 ± 1.9	947.14 ± 1.9	942.93 ± 1.9	938.6 ± 1.9	3.81 ± 0.047	3.354 ± 0.041	2.982 ± 0.037	2.659 ± 0.033	2.384 ± 0.029
m2 = 0.1702	961.31 ± 1.9	957.1 ± 1.9	952.84 ± 1.9	948.64 ± 1.9	944.4 ± 1.9	3.964 ± 0.049	3.495 ± 0.043	3.099 ± 0.038	2.765 ± 0.034	2.475 ± 0.03
m2 = 0.2236	966.13 ± 1.9	961.88 ± 1.9	957.61 ± 1.9	953.37 ± 1.9	949.14 ± 1.9	4.112 ± 0.05	3.611 ± 0.044	3.202 ± 0.039	2.854 ± 0.035	2.553 ± 0.031
m2 = 0.372	979.32 ± 2	975.11 ± 2	970.87 ± 1.9	966.57 ± 1.9	962.36 ± 1.9	4.544 ± 0.055	3.97 ± 0.048	3.516 ± 0.043	3.132 ± 0.038	2.795 ± 0.034
m2 = 0.6919	1007.77 ± 2	1003.5 ± 2	999.23 ± 2	994.92 ± 2	990.69 ± 2	5.686 ± 0.069	4.929 ± 0.06	4.32 ± 0.052	3.82 ± 0.046	3.381 ± 0.041
m2 = 1.299	1060.68 ± 2.1	1056.36 ± 2.1	1052 ± 2.1	1047.7 ± 2.1	1043.43 ± 2.1	8.811 ± 0.1	7.487 ± 0.089	6.416 ± 0.076	5.603 ± 0.067	4.9 ± 0.059
